Measurements: patent US10829487B2, “Benzylamino substituted pyridopyrimidinones and derivatives as SOS1 inhibitors” (Boehringer Ingelheim International GmbH, priority 2017, dated 2020)
pIC50: −log10 of the molar value.

Experiments:
[1] = Metabolic (microsomal) stability assay, mouse liver microsomes (MLM); format: in vitro ADME; conditions: 1 μM test compound, 37° C.
Method: (§1) Metabolic (Microsomal) Stability Assay: The metabolic degradation of the test compound is assayed at 37° C. with pooled liver microsomes (mouse (MLM), rat (RLM) or human (HLM)). The final incubation volume of 74 μL per time point contains TRIS buffer (pH 7.5; 0.1 M), magnesium chloride (6.5 mM), microsomal protein (0.5 mg/mL for mouse/rat, 1 mg/mL for human specimens) and the test compound at a final concentration of 1 μM. Following a short preincubation period at 37° C., the reactions are initiated by addition of 8 μL beta-nicotinamide adenine dinucleotide phosphate, reduced form (NADPH, 10 mM) and terminated by transfering an aliquot into solvent after different time points. Additionally, the NADPH-independent degradation is monitored in incubations without NADPH, terminated at the last time point by addition of acetonitrile. The quenched incubations are pelleted by centrifugation (1811 g, 5 min). An aliquot of the supernatant is assayed by LC-MS/MS for the amount of parent compound. In vitro intrinsic clearance (CLint, in vitro) is calculated from the time course of the disappearance of the test drug during the microsomal incubation. Each plot is fitted to the first-order elimination rate constant as C(t)=C0*exp(−ke*t), where C(t) and C0 are the concentration of unchanged test drug at incubation time t and that at preincubation and ke is the disappearance rate constant of the unchanged drug. Subsequently, CLint, in vitro (μL min^−1·amount protein) values are converted to CLint, in vitro (mL min^−1·kg^−1) for the whole body. CLint, in vitro data are scaled up using physiological parameters. For better across species comparison the predicted clearance is expressed as percent of the liver blood flow [% QH] in the individual species. In general, high stability (corresponding to low % QH) of the compounds across species is desired.

[2] = Metabolic (microsomal) stability assay, human liver microsomes (HLM); format: in vitro ADME; conditions: 1 μM test compound, 37° C.
Method: as §1

[3] = Metabolic (microsomal) stability assay, rat liver microsomes (RLM); format: in vitro ADME; conditions: 1 μM test compound, 37° C.
Method: as §1

[4] = biological target: protein-protein interaction between SOS1 and KRAS G12D (Homo sapiens (Human), UniProt Q07889); assay: KRAS::SOS1 AlphaScreen Binding Assay
Description: KRAS::SOS1 AlphaScreen Binding Assay
Low IC50 values are indicative of high potency of the SOS1 inhibitor compound in this assay setting:
Reagents: • GST-tagged SOS1 (564_1049_GST_TEV_ECO) produced in-house • GST-TEV-SOS1 (564-1049) is purchased from Viva Biotech Ltd. • 6×His-Tev-K-RasG12D(1-169)Avi is purchased from Xtal BioStructures, Inc. (Lot # X129-110) • GDP (Sigma Cat No G7127) • AlphaLISA Glutathione Acceptor Beads (PerkinElmer, Cat No AL109) • AlphaScreen Streptavidin Donor Beads (PerkinElmer Cat No 6760002) • Assay plates: Proxiplate-384 PLUS, white (PerkinElmer, Cat No 6008289)
10 nM (final assay concentration) KRAS G12D, 10 μM (final assay concentration) GDP and 5 nM (final assay concentration) GST-SOS1 are mixed in assay buffer prior to use and kept at room temperature.
AlphaLISA Glutathione Acceptor Beads and AlphaScreen Streptavidin Donor Beads are mixed in assay buffer at a concentration of 10 μg/mL (final assay concentration) each prior to use and kept at room temperature.
Compounds are diluted to a final start concentration of 100 μM and are tested in duplicate. Assay-ready plates (ARPs) are generated using an Access Labcyte Workstation with a Labcyte Echo 550 or 555 accoustic dispenser. For compound a start concentration of 100 μM, 150 nL of compound solution is transferred per well in 11 concentrations in duplicate with serial 1:5 dilutions.
The assay is run using a fully automated robotic system in a darkened room below 100 Lux. 10 μL of KRAS::SOS1 GDP mix is added into columns 1-24 to the 150 nL of compound solution (final dilution in the assay 1:100, final DMSO concentration 1%).
After a 30 minute incubation time 5 μL of bead mix is added into columns 1-23. Plates are kept at room temperature in a darkened incubator. After a further 60 minute incubation, the signal is measured using a PerkinElmer Envision HTS Multilabel Reader using the AlphaScreen specifications from PerkinElmer. Each plate contains the following controls: • diluted DMSO+KRAS::SOS1 GDP mix+bead mix • diluted DMSO+KRAS::SOS1 GDP mix
IC50 values are calculated and analyzed using a 4 parametric logistic model.

CYP3A4 = CYP3A4 (Homo sapiens (Human), UniProt P08684); assay: Time dependent inhibition of CYP3A4 assay (TDI 3A4); format: in vitro ADME; conditions: hydroxy-midazolam formation after 30 min relative to 0 min preincubation; 25 uM compound; human liver microsomes; midazolam substrate
Method: Time Dependent Inhibition of CYP3A4 Assay (TDI 3A4):
After preincubation, the incubate is diluted 1:10 and the substrate midazolam is added for the main incubation (15 min). The main incubation is quenched with acetonitrile and the formation of hydroxy-midazolam is quantified via LC/MS-MS. The formation of hydroxy-midazolam from the 30 min preincubation relative to the formation from the 0 min preincubation is used as a readout. Values of less than 100% mean that the substrate midazolam is metabolized to a lower extend upon 30 min preincubation compared to 0 min preincubation. In general low effects upon 30 min preincubation are desired (corresponding to values close to 100%)

[5] = test system: ERK phosphorylation in DLD-1 cells (KRAS G13D); assay: ERK Phosphorylation Assay (AlphaLISA SureFire Ultra p-ERK1/2); format: cell-based; conditions: Homo sapiens, 1 h compound, EGF 50 ng/mL 10 min, read-out: pERK
Method: ERK Phosphorylation Assay
Low IC50 values are indicative of high potency of the SOS1 inhibitor compounds in this assay setting.
ERK phosphorylation assays are performed using the following human cell lines: DLD-1 (ATCC CCL-221): human colon cancer with a KRAS G13D mutation;
DLD-1 cells (ATCC CCL-221) are seeded at 50,000 cells per well in/60 μL of RPMI with 10% FBS, non-essential amino acids, pyruvate and glutamax in Greiner TC 384 plates. The cells are incubated for 1 h at room temperature and then incubated overnight in an incubator at 37° C. and 5% CO2 in a humidified atmosphere. 60 nL compound solution (10 mM DMSO stock solution) is then added using a Labcyte Echo 550 device. After a 1 h incubation in the aforementioned incubator, 3 μL Epidermal Growth Factor (EGF, final concentration 50 ng/mL) is added. 10 minutes later the medium is removed, and the cells lysed by addition of 20 μL of 1.6-fold lysis buffer from the AlphaLISA SureFire Ultra pERK1/2 (Thr202/Tyr204) Assay Kit with added protease inhibitors, 100 nM trametinib+100 nM staurosporine. After 20 minutes of incubation at room temperature with shaking, 6 μL of each lysate sample is transferred to a 384-well Proxiplate and analyzed for pERK (Thr202/Tyr204) with the AlphaLISA SureFire Ultra pERK1/2 (Thr202/Tyr204) Assay Kit. 3 μL Acceptor Mix and 3 μL Donor Mix are added under subdued light and incubated for 2 h at room temperature in the dark, before the signal is measured on a Perkin Elmer Envision plate reader using 384 AlphaScreen settings for Proxiplates. Data are fitted by iterative calculation with variable hill slope. The sigmoidal curve slope is fitted using a default fitting curve to ascertain IC50 values.

[6] = Table 20, KRAS::SOS1 AlphaScreen (SOS1 / KRAS G12D)
[7] = KRAS G12D::SOS1 AlphaScreen, measured without EDTA unless marked with an asterisk

Sequence of protein-protein interaction between SOS1 and KRAS G12D (Q07889 564-1049, stated change not applied): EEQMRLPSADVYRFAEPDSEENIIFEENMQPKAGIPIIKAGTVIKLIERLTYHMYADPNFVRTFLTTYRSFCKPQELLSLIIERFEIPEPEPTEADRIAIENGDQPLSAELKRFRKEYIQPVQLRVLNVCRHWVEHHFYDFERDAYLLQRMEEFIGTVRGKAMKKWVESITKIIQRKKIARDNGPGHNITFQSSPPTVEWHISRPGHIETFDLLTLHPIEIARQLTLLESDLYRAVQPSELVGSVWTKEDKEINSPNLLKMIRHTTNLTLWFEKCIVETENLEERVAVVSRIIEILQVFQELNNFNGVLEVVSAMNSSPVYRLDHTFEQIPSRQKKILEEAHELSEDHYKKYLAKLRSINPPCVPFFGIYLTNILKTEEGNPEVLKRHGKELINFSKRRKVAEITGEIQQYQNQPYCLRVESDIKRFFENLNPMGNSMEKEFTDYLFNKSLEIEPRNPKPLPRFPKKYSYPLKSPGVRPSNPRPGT
Sequence of CYP3A4 (P08684 whole entry): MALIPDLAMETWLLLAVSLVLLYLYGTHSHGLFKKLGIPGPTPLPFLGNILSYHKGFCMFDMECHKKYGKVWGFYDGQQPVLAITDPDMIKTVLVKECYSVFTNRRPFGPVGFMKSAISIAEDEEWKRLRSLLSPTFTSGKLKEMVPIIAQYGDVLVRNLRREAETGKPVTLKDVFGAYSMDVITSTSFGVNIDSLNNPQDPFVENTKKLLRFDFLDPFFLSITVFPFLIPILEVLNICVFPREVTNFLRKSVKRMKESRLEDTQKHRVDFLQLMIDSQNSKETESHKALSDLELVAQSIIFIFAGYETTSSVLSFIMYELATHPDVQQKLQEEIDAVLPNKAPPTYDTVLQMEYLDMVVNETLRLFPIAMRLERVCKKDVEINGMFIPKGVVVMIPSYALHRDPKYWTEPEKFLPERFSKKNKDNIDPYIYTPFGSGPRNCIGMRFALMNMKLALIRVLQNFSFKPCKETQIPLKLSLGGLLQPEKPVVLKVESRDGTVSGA

SMILES	MLM [% QH] [1] [% QH]	HLM [% QH] [2] [% QH]	RLM [% QH] [3] [% QH]	pIC50 [4, 6]	TDI 3A4 [%] (CYP3A4)	pIC50 [5]	pIC50 [4, 7]
Cc1nc(N[C@H](C)c2cccc(C(F)F)c2F)c2cn(C3(C(F)F)CC3)c(=O)cc2n1 [I-3]	51	<24	<23	–	–	–	–
Cc1nc(N[C@H](C)c2cccc(C(F)F)c2F)c2cn(C3(C(F)(F)F)CC3)c(=O)cc2n1 [I-4]	46	<24	<23	8.10	–	–	–
Cc1nc(N[C@H](C)c2cccc(C(F)F)c2F)c2cn([C@H](C)C(F)(F)F)c(=O)cc2n1 [I-10]	41	<24	40	7.96	–	–	–
Cc1nc(N[C@H](C)c2cccc(C(F)F)c2F)c2cn(C3CC(F)(F)C3)c(=O)cc2n1 [I-13]	<24	<24	52	7.96	–	–	–
Cc1nc(N[C@H](C)c2cccc(C(F)F)c2F)c2cn(C3(C)CC(F)(F)C3)c(=O)cc2n1 [I-14]	26	27	56	7.68	–	–	–
Cc1nc(N[C@H](C)c2cccc(C(F)F)c2C)c2cn(C3(C)CC3)c(=O)cc2n1 [I-20]	–	–	–	8.52	93	–	–
Cc1nc(N[C@H](C)c2cccc(C(F)(F)F)c2)c2cn(C(C)C)c(=O)cc2n1 [I-27]	88	<24	<23	7.42	–	–	–
Cc1nc(N[C@H](C)c2cccc(C(F)(F)F)c2C)c2cn([C@H]3C[C@](O)(C(F)(F)F)C3)c(=O)cc2n1 [I-47]	<24	24	29	7.48	–	–	–
Cc1nc(N[C@H](C)c2cccc(C(C)(F)F)c2)c2cn(C34CC(F)(C3)C4)c(=O)cc2n1 [I-51]	<24	<24	49	7.51	–	–	–
C[C@@H](Nc1ncnc2cc(=O)n([C@H]3C[C@H](F)C3)cc12)c1cccc(C(F)F)c1F [I-69]	<24	<24	40	8.22	–	–	–
C[C@@H](Nc1ncnc2cc(=O)n(C34CC(F)(C3)C4)cc12)c1cccc(C(F)F)c1F [I-71]	<24	<24	<23	8.15	–	–	–
Cc1nc(N[C@H](C)c2cccc(C(F)F)c2F)c2cn([C@H]3C[C@@H]3C(F)F)c(=O)c(F)c2n1 [I-83]	<24	<24	42	7.82	–	–	–
Cc1nc(N[C@H](C)c2cccc(C(F)F)c2F)c2cn([C@H]3C[C@H](F)C3)c(=O)c(F)c2n1 [I-84]	<24	<24	29	8.10	–	–	–
Cc1nc(N[C@H](C)c2cccc(C(F)F)c2F)c2cn([C@]3(C(F)(F)F)CCOC3)c(=O)c(F)c2n1 [I-85]	55	24	<23	8.05	–	–	–
Cc1nc(N[C@H](C)c2cccc(C(C)(F)F)c2F)c2cn(C3(C)CC3)c(=O)c(F)c2n1 [I-86]	33	<24	<23	8.22	–	–	–

Second part, the compound after the results:

MLM [% QH] [1] [% QH]	HLM [% QH] [2] [% QH]	RLM [% QH] [3] [% QH]	pIC50 [4, 6]	TDI 3A4 [%] (CYP3A4)	pIC50 [5]	pIC50 [4, 7]	SMILES
<24	24	<23	8.70	–	–	–	Cc1nc(N[C@H](C)c2cccc(C(F)(F)C(C)(C)O)c2F)c2cn(C3(C)CC3)c(=O)c(F)c2n1 [I-88]
<24	<24	<23	8.40	–	–	–	Cc1nc(N[C@H](C)c2cccc(C(F)(F)C(C)(C)O)c2F)c2cn(C34CC(C3)C4)c(=O)c(F)c2n1 [I-90]
30	<24	<23	8.15	–	–	–	C[C@@H](Nc1ncnc2c(F)c(=O)n(C3(C(F)F)CC3)cc12)c1cccc(C(F)F)c1F [I-96]
<24	<24	<23	7.85	–	7.09	–	Cc1nc(N[C@H](C)c2cccc(C(F)(F)F)c2)c2cn(C3(C(F)F)CC3)c(=O)cc2n1 [I-97]
59	36	<23	8.40	–	7.10	–	Cc1nc(N[C@H](C)c2cccc3c2OCC3(F)F)c2cn(C3(C)CC3)c(=O)cc2n1 [I-101]
44	31	<23	–	–	–	7.92	Cc1c(=O)n(C2(C)CC2)cc2c(N[C@H](C)c3cccc(C(F)F)c3F)ncnc12 [I-161]
54	<24	<23	–	–	–	7.77	Cc1c(=O)n([C@H]2C[C@@H]2C(F)F)cc2c(N[C@H](C)c3cccc(C(F)F)c3F)ncnc12 [I-165]
53	<24	<23	–	–	–	7.85	Cc1c(=O)n(-c2cnn(C)c2)cc2c(N[C@H](C)c3cccc(C(F)F)c3F)ncnc12 [I-172]
